Experimental data from patent US9540381B2, “Anti-angiogenesis compound, intermediate and use thereof” (Guangzhou KangRui Biological Pharmaceutical Technology Co., …, priority 2013, dated 2017).
Entries after “also recorded” stand apart in the source; their conditions may differ.

Columns and labels:
PI3K-α = target: T1, PI3K-α (Homo sapiens, UniProt P42336); test: Inhibition specificity, PI3K-α (ADP-Glo); assay type: biochemical; conditions: 5000 nM, average of two tests; read-out: Average Inhibition Rate (%) PI3K-α
T1 construct: purchased INVITROGEN

KDR (VEGFR2) = target: T2, KDR (VEGFR2) (Homo sapiens, UniProt P35968); test: Inhibition specificity, KDR; assay type: biochemical; conditions: 5000 nM, average of two tests; for inhibition at 5 µM: read-out: Average Inhibition Rate (%) KDR
T2 construct: purchased Invitrogen

MET = target: T3, MET (Homo sapiens, UniProt P08581); test: Inhibition specificity, MET; assay type: biochemical; conditions: 5000 nM, average of two tests; read-out: Average Inhibition Rate (%) MET
T3 construct: purchased INVITROGEN

VEGFR2 (KDR) = target: T4, VEGFR2 (KDR) (Homo sapiens, UniProt P35968); test: Kinase inhibition dosage effect, KDR; assay type: biochemical; conditions: for IC50: [ATP] 80 μM, 3 hr; for Hill KDR: dose-effect curve fit
T4 construct: purchased Invitrogen

ROCK1 = target: T5, ROCK1 (Homo sapiens, UniProt Q13464); test: Inhibition specificity, ROCK1; assay type: biochemical; conditions: 5000 nM, average of two tests; read-out: Average Inhibition Rate (%) ROCK1
T5 construct: purchased CARNA

CDK2 = target: T6, CDK2 (Homo sapiens, UniProt P24941); test: Inhibition specificity, CDK2; assay type: biochemical; conditions: 5000 nM, average of two tests; read-out: Average Inhibition Rate (%) CDK2
T6 construct: purchased UPSTATE

[1] = system: vessel development of the FLK1-GFP transgenic danio rerio; test: Inhibition test on vascular development of Danio rerio; assay type: in vivo; conditions: for inhibition at 0.1 µM / inhibition at 1 µM / inhibition at 5 µM / inhibition at 10 µM / inhibition at 20 µM / inhibition at 40 µM / inhibition at 100 µM: Danio rerio, after 24 hours, n = 5, read-out: inhibition rate on the development of vertebral vessel; for inhibition at 0.1 µM: 100 nM; for inhibition effect on the vessel development of the danio rerio (in words): Table 1 and FIG. 7
Description: Female fish can spawn 200-300 […], and the fertilization and embryonic development processes are conducted in vitro. They can grow up within 24 hours, and the embryo is transparent, which is suitable for observing the change of intracorporal organs and tissues. These characteristics make the danio rerio become to be one of the five fish laboratory animals accepted by the international organization for standardization. Currently, the danio rerio is widely used in human disease studies, especially used in cardiovascular system studies. The danio rerio can be used for screening the influence of small molecular compounds on angiogenesis. Experimental Method: This experiment uses FLK1-GFP transgenic danio rerio as an animal model which is generally used for screening the influence of compounds on angiogenesis. Vessel can be in vivo observed under fluorescence microscope (Suk-Won Jin, 2005, Development). The selected embryo of the postnatal FLK1-GFP transgenic danio rerio was placed into a culture dish and incubated for 3-5 days in an incubator at 28° C. […] Examine the developmental condition of the vertebral vessel after 24 hours and take photo by use of the fluorescence microscope.

corneal angiogenesis = test: Mice corneal chemical burn model; conditions: 100 uM subconjunctival injection then drops twice a day, 7 days
choroidal angiogenesis = test: Laser-induced choroidal angiogenesis (CNV) animal model; assay type: in vivo, c57/BL mice; conditions: 1 uM injected into the eye after laser, 5 days
Description: The […]57/BL (Jax Lab, US), and the experiment is conducted on laser-induced Choroidal Angiogenesis (CNV) animal model. This model is a widely used animal model used for studying the influence of a medicament on CNV development of wet macular degeneration. […] Only the laser points, which were observed as bubble indicating the fracture of Bruch membrane, were considered to be studied. Inject immediately after laser implementation: the right eye was injected 1 uM compound 2-2, and the left eye was injected PBS having the same volume as the medicament as a control. Kill the animal 5 days after injection and obtain the eyeball. After removing the anterior segment, vitreous body and retina, prepare flat mounts of choroid and meanwhile dye with isolectin. Take photos by Zeiss fluorescence microscope system and measure CNV area.

T4 sequence (P35968 20-1356, species assumed): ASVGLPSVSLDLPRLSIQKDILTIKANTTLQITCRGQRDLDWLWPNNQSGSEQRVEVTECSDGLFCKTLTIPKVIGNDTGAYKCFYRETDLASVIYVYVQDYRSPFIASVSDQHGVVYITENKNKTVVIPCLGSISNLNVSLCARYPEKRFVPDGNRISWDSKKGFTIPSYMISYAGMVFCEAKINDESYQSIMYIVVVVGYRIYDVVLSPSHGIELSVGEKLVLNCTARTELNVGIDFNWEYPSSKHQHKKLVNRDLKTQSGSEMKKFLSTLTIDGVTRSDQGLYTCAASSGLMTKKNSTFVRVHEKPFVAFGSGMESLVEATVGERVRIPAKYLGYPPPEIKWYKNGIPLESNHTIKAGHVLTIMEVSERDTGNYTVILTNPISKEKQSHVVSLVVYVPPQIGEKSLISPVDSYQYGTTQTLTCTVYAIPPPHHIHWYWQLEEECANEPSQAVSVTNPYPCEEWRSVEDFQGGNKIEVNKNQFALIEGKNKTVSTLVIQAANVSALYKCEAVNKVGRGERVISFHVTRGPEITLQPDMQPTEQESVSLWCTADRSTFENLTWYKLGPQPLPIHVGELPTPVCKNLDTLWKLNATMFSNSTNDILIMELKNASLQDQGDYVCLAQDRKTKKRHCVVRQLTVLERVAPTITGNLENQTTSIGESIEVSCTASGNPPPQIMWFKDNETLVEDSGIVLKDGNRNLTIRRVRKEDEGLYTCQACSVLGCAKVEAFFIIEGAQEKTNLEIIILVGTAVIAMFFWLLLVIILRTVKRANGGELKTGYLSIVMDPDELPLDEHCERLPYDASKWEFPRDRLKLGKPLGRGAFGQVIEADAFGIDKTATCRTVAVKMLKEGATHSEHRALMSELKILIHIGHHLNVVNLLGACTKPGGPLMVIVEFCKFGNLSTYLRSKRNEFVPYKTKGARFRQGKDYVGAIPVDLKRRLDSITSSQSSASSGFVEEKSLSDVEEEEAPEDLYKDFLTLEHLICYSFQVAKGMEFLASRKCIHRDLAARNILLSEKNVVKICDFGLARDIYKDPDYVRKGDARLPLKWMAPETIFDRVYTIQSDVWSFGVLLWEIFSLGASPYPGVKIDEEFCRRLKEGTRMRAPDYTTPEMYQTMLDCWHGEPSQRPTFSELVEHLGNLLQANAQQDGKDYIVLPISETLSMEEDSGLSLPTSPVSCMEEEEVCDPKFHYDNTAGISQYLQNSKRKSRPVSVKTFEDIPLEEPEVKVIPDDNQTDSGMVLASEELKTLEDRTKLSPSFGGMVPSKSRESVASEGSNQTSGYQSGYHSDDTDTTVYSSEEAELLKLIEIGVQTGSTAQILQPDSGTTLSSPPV
T2 sequence (P35968 20-1356, species assumed): as above
T5 sequence (Q13464 whole entry, species assumed): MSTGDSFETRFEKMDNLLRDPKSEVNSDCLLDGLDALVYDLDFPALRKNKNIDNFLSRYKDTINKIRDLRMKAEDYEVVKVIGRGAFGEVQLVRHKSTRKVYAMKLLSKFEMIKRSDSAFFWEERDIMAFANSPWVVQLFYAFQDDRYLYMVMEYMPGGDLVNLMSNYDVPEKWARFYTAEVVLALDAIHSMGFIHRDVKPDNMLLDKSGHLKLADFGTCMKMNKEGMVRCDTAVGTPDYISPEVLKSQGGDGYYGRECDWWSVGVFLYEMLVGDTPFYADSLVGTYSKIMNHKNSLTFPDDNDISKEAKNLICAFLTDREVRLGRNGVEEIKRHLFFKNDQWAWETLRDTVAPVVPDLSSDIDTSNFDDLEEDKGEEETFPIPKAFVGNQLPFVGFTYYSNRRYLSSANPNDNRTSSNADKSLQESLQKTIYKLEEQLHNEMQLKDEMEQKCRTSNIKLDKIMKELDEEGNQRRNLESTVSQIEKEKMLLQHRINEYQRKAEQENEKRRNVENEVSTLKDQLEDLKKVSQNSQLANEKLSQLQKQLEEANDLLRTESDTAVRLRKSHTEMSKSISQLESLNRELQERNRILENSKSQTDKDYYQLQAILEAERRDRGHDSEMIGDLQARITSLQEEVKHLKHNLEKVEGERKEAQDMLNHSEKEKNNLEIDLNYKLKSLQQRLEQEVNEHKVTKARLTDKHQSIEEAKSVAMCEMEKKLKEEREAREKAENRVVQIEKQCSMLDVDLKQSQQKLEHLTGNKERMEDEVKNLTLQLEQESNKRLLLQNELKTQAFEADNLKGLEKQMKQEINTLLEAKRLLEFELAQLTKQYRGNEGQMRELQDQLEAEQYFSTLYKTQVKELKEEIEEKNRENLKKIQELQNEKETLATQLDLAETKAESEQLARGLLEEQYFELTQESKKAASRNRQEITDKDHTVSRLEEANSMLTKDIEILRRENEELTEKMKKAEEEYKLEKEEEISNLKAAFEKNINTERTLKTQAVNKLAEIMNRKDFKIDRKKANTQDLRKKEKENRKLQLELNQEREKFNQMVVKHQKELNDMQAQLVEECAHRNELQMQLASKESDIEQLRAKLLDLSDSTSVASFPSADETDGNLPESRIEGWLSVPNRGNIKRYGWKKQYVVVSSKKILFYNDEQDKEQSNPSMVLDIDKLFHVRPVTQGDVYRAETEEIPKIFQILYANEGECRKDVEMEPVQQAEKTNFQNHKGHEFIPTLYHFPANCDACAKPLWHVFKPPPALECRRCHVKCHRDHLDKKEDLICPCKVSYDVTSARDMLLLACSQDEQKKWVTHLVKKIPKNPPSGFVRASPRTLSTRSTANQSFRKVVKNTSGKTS
T3 sequence (P08581 25-1390): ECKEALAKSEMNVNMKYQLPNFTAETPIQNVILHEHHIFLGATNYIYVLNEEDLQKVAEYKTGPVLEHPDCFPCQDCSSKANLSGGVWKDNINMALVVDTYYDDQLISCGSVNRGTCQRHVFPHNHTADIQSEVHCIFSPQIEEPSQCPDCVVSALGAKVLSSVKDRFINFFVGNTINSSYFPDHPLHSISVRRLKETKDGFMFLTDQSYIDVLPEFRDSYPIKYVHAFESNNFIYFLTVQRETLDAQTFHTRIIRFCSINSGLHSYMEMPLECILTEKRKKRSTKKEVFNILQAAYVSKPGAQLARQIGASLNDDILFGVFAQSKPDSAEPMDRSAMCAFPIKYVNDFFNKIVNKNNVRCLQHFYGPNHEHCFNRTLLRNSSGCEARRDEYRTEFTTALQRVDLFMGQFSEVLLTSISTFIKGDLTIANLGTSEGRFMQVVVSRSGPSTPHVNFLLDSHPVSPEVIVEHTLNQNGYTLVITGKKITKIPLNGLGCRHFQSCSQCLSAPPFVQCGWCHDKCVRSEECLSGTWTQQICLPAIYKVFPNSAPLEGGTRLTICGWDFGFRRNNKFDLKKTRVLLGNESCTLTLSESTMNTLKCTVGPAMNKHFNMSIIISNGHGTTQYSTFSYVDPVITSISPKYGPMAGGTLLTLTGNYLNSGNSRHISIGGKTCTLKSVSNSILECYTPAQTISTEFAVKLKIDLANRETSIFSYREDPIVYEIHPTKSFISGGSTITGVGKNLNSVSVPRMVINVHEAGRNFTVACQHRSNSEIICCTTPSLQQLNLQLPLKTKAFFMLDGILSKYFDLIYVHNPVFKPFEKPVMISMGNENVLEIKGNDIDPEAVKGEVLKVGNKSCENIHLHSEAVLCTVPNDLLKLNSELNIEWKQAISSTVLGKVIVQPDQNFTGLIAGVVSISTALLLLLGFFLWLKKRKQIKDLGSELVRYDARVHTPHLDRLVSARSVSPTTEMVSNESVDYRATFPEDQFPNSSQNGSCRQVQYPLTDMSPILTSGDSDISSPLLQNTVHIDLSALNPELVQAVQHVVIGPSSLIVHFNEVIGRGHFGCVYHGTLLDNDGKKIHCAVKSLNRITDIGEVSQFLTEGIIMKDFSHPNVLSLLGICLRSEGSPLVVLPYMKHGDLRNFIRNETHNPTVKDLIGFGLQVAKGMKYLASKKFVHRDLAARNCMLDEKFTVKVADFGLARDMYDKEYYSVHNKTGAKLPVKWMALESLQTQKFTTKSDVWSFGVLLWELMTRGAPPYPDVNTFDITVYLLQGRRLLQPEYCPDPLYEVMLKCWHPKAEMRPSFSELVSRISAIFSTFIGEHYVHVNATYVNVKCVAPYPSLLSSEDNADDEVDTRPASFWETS

| inhibition at 5 µM (PI3K-α) [%] | inhibition at 5 µM (KDR (VEGFR2)) [%] | inhibition at 5 µM (MET) [%] | inhibition activity on KDR (in words) (VEGFR2 (KDR)) | IC50 (VEGFR2 (KDR)) [µM] | Inhibition Rate on KDR (%) (VEGFR2 (KDR); concentration 0.0002823 (uM)) | Inhibition Rate on KDR (%) (VEGFR2 (KDR); concentration 0.0008468 (uM)) | Inhibition Rate on KDR (%) (VEGFR2 (KDR); concentration 0.0025403 (uM)) | Inhibition Rate on KDR (%) (VEGFR2 (KDR); concentration 0.0076208 (uM)) | Inhibition Rate on KDR (%) (VEGFR2 (KDR); concentration 0.0228624 (uM)) | Inhibition Rate on KDR (%) (VEGFR2 (KDR); concentration 0.0685871 (uM)) | Inhibition Rate on KDR (%) (VEGFR2 (KDR); concentration 0.2057613 (uM)) | Inhibition Rate on KDR (%) (VEGFR2 (KDR); concentration 0.6172840 (uM)) | Inhibition Rate on KDR (%) (VEGFR2 (KDR); concentration 1.8518519 (uM)) | Inhibition Rate on KDR (%) (VEGFR2 (KDR); concentration 5.5555556 (uM)) | Inhibition Rate on KDR (%) (VEGFR2 (KDR); concentration 16.6666667 (uM)) | Inhibition Rate on KDR (%) (VEGFR2 (KDR); concentration 50 (uM)) | Hill KDR (VEGFR2 (KDR)) | inhibition at 5 µM (ROCK1) [%] | inhibition at 5 µM (CDK2) [%] | Structure (SMILES) | further results |
| --- | --- | --- | --- | --- | --- | --- | --- | --- | --- | --- | --- | --- | --- | --- | --- | --- | --- | --- | --- | --- | --- |
| 6.78 | > 97 | 3.83 | good inhibition activity | 0.0277 | 2.75 | 0.61 | 7.27 | 20.59 | 45.65 | 71.24 | 84.37 | 91.13 | 94.18 | 95.30 | 94.60 | 94.91 | 1.066 | 2.63 | 3.75 | Nc1cc(Oc2ccc3c(C(=O)Nc4cccc(C(F)(F)F)c4)cccc3n2)ncn1 [Compound 2-1] | inhibition at 0.1 µM [1]: 10%; inhibition at 1 µM [1]: 50%; inhibition at 5 µM [1]: 100%; inhibition at 10 µM [1]: 100%; inhibition at 20 µM [1]: 100%; inhibition at 40 µM [1]: 100%; inhibition at 100 µM [1]: 100%; inhibition effect on the vessel development of the danio rerio (in words) [1]: have inhibition effect on the vessel development of the danio rerio |
| -7.1 | 100 | 2.46 | good inhibition activity | 0.00731 | 5.09 | 11.82 | 25.59 | 49.36 | 78.25 | 90.14 | 92.95 | 94.82 | 97.30 | 96.50 | 94.47 | 95.99 | 1.175 | 1.39 | 2.02 | Nc1nccc(Oc2ccc3c(C(=O)Nc4cccc(C(F)(F)F)c4)cccc3n2)n1 [Compound 2-2] | effect on corneal angiogenesis and bleeding (in words, FIG. 11) (corneal angiogenesis): obviously reduces angiogenesis and bleeding; Average Inhibition Rate (%) KDR (KDR (VEGFR2); 5 µM): 100.1%; inhibition at 0.1 µM [1]: 50%; inhibition at 1 µM [1]: 100%; inhibition at 5 µM [1]: 100%; inhibition at 10 µM [1]: 100%; inhibition at 20 µM [1]: 100%; inhibition at 40 µM [1]: 100%; inhibition at 100 µM [1]: 100%; inhibition effect on the vessel development of the danio rerio (in words) [1]: have inhibition effect on the vessel development of the danio rerio; inhibition of choroidal angiogenesis (in words, FIG. 9) (choroidal angiogenesis): could obviously inhibit the choroidal angiogenesis; also recorded: obviously inhibiting choroidal angiogenesis |
